{
  "source": "paper PMC11812085",
  "about": "“Structural Dynamics of the Ubiquitin Specific Protease USP30 in Complex with a Cyanopyrrolidine-Containing Covalent Inhibitor” (Journal of Proteome Research, 2025)",
  "biological_target": "T1, USP30 (ubiquitin specific protease 30) (Homo sapiens, UniProt Q70CQ3, DEL179-216/DEL288-305)",
  "T1 construct": "residues 64-502Δ179-216 and 288-305",
  "T1 sequence (Q70CQ3 with tags, fused parts or gaps DEL179-216/DEL288-305)": "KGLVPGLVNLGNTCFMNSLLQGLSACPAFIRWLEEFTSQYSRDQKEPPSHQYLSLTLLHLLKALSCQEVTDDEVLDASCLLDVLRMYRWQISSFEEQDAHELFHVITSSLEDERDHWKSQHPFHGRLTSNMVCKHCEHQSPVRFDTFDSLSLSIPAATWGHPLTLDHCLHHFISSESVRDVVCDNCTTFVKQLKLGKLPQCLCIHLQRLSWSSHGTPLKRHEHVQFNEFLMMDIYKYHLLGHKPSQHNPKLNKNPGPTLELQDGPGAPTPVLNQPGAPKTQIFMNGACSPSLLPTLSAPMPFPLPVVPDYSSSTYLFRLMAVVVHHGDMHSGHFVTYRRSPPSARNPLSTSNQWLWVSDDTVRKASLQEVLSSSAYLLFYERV",
  "test": "RapidFire MS of covalent complex and HDX-MS on recombinant USP30; KI from kinact/KI kinetics with Ub-rhodamine (IC50 […] after […] min preincubation; […] in SH-SY5Y lysate ABPP)",
  "type": "biochemical",
  "data": [
    {"smiles": "C[C@@H]1C[C@@H](NC(=O)c2ncc(-c3cccc(C#N)c3)o2)CN1C#N", "note": "[USP30-I-1]", "values": [
      {"measurement": "KI (inactivation)", "value": "~350", "unit": "nM"}
    ]}
  ]
}
